Read-outs that look alike come from different tables or passages of the source. *1 amine or outer side, *2 acyl side, *3 side chain or, on linkers, in order; H or OH if unused. Where a SMILES comes first, the peptide text is derived from it. Side-chain parts run from the residue outwards. [ ]: non-standard residue; d: D form. The star is where a group is joined. γGlu = O=C(O)[C@H](CCC(=O)[*:2])N[*:1]; Stearoyl = CCCCCCCCCCCCCCCCCC(=O)*; Palmitoyl = CCCCCCCCCCCCCCCC(=O)*; Aib = CC(C)(N)C(=O)O
Target: T1, human GLP-1 receptor (Homo sapiens, UniProt P43220)
T1 construct: expressed in transfected cells
Assay: cAMP response (HTRF) of HEK-293 cells stably expressing human GLP-1 receptor
Assay type: cell-based
Details: read-out: EC50 hGLP-1 R
Experimental: cAMP content of cells was determined using a kit from Cisbio Corp. (cat. no. 62AM4PEC) based on HTRF (Homogenous Time Resolved Fluorescence). For preparation, cells were split into T175 culture flasks and grown overnight to near confluency in medium (DMEM/10% FBS). Medium was then removed and cells washed with PBS lacking calcium and magnesium, followed by proteinase treatment with accutase (Sigma-Aldrich cat. no. A6964). Detached cells were washed and resuspended in assay buffer (1×HBSS; 20 mM HEPES, 0.1% BSA, 2 mM IBMX) and cellular density determined. They were then diluted to 400000 cells/ml and 25 μl-aliquots dispensed into the wells of 96-well plates. For measurement, 25 μl of test compound in assay buffer was added to the wells, followed by incubation for 30 minutes at room temperature.

T1 sequence (P43220 24-463): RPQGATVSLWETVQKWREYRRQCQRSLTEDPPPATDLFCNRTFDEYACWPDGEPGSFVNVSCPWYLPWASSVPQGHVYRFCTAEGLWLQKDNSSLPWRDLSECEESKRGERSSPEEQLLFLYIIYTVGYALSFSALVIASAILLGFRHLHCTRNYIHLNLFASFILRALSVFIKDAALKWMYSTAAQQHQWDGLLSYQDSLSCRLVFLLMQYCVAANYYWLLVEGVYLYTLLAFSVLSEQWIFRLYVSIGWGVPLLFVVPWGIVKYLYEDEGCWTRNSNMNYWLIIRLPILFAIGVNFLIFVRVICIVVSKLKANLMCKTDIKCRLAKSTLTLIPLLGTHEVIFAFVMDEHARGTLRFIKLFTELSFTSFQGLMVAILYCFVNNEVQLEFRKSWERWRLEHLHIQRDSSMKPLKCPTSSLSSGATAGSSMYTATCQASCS

Row | Compound | EC50 (Table 7, cAMP formation) | EC50 (Table 8, functionalized vs non-functionalized position 14)
1 | CCCCCCCCCCCCCCCCCC(=O)N[C@@H](CCC(=O)NCCCC[C@H](NC(=O)[C@H](CCC(N)=O)NC(=O)[C@@H](NC(=O)[C@H](CO)NC(=O)[C@H](CC(C)C)NC(=O)[C@H](CC(=O)O)NC(=O)[C@H](CO)NC(=O)[C@@H](NC(=O)[C@H](Cc1ccccc1)NC(=O)[C@@H](NC(=O)CNC(=O)[C@H](CCC(=O)O)NC(=O)C(C)(C)NC(=O)[C@@H](N)Cc1ccc(O)cc1)[C@@H](C)O)[C@@H](C)O)[C@@H](C)CC)C(=O)N[C@@H](CCC(=O)O)C(=O)N[C@@H](CCCCN)C(=O)N[C@@H](CCCNC(=N)N)C(=O)N[C@@H](C)C(=O)N[C@@H](C)C(=O)N[C@@H](CCC(N)=O)C(=O)N[C@@H](CCC(=O)O)C(=O)N[C@@H](Cc1ccccc1)C(=O)N[C@H](C(=O)N[C@@H](CCC(=O)O)C(=O)N[C@@H](Cc1c[nH]c2ccccc12)C(=O)N[C@@H](CC(C)C)C(=O)N[C@@H](CCCCN)C(=O)N[C@@H](CC(N)=O)C(=O)N[C@H](C(=O)NCC(=O)N1CCC[C@H]1C(=O)N[C@@H](CO)C(=O)N[C@@H](CO)C(=O)NCC(=O)N[C@@H](C)C(=O)N1CCC[C@H]1C(=O)N1CCC[C@H]1C(=O)N1CCC[C@H]1C(=O)N[C@@H](CO)C(N)=O)[C@@H](C)O)[C@@H](C)CC)C(=O)O [SEQ ID NO: 19, Y-Aib-E-G-T-F-T-S-D-L-S-I-Q-K(γE-x70)-EKRAAQEFIEWLKNTGPSSGAPPPS-NH2] (H-Y[Aib]EGTFTSDLSIQK([γGlu-Stearoyl])EKRAAQEFIEWLKNTGPSSGAPPPS-NH2) | 4 pM | –
2 | CCCCCCCCCCCCCCCC(=O)N[C@@H](CCC(=O)NCCCC[C@H](NC(=O)[C@H](CCC(N)=O)NC(=O)[C@@H](NC(=O)[C@H](CO)NC(=O)[C@H](CC(C)C)NC(=O)[C@H](CC(=O)O)NC(=O)[C@H](CO)NC(=O)[C@@H](NC(=O)[C@H](Cc1ccccc1)NC(=O)[C@@H](NC(=O)CNC(=O)[C@H](CCC(=O)O)NC(=O)C(C)(C)NC(=O)[C@@H](N)Cc1ccc(O)cc1)[C@@H](C)O)[C@@H](C)O)[C@@H](C)CC)C(=O)N[C@@H](CCC(=O)O)C(=O)N[C@@H](CO)C(=O)N[C@@H](CCCNC(=N)N)C(=O)N[C@@H](C)C(=O)N[C@@H](C)C(=O)NC(C)(C)C(=O)N[C@@H](CC(=O)O)C(=O)N[C@@H](Cc1ccccc1)C(=O)N[C@H](C(=O)N[C@@H](CCC(=O)O)C(=O)N[C@@H](Cc1c[nH]c2ccccc12)C(=O)N[C@@H](CC(C)C)C(=O)N[C@@H](CCCCN)C(=O)N[C@@H](CC(N)=O)C(=O)N[C@H](C(=O)NCC(=O)N1CCC[C@H]1C(=O)N[C@@H](CO)C(=O)N[C@@H](CO)C(=O)NCC(=O)N[C@@H](C)C(=O)N1CCC[C@H]1C(=O)N1CCC[C@H]1C(=O)N1CCC[C@H]1C(=O)N[C@@H](CO)C(N)=O)[C@@H](C)O)[C@@H](C)CC)C(=O)O [SEQ ID NO: 24, Y-Aib-E-G-T-F-T-S-D-L-S-I-Q-K(γE-x53)-E-S-R-A-A-Aib-D-F-I-E-W-L-K-N-T-G-P-S-S-G-A-P-P-P-S-NH2] (H-Y[Aib]EGTFTSDLSIQK([γGlu-Palmitoyl])ESRAA[Aib]DFIEWLKNTGPSSGAPPPS-NH2) | 13.5 pM | –
3 | CCCCCCCCCCCCCCCC(=O)N[C@@H](CCC(=O)NCCCC[C@H](NC(=O)[C@H](CCC(N)=O)NC(=O)[C@@H](NC(=O)[C@H](CO)NC(=O)[C@H](CC(C)C)NC(=O)[C@H](CC(=O)O)NC(=O)[C@H](CO)NC(=O)[C@@H](NC(=O)[C@H](Cc1ccccc1)NC(=O)[C@@H](NC(=O)CNC(=O)[C@H](CCC(N)=O)NC(=O)C(C)(C)NC(=O)[C@@H](N)Cc1ccc(O)cc1)[C@@H](C)O)[C@@H](C)O)[C@@H](C)CC)C(=O)N[C@@H](CC(=O)O)C(=O)N[C@@H](CCCCN)C(=O)N[C@@H](CCCNC(=N)N)C(=O)N[C@@H](C)C(=O)N[C@@H](C)C(=O)N[C@@H](CCC(N)=O)C(=O)N[C@@H](CC(=O)O)C(=O)N[C@@H](Cc1ccccc1)C(=O)N[C@H](C(=O)N[C@@H](CCC(=O)O)C(=O)N[C@@H](Cc1c[nH]c2ccccc12)C(=O)N[C@@H](CC(C)C)C(=O)N[C@@H](CCCCN)C(=O)N[C@@H](C)C(=O)NCC(=O)NCC(=O)N1CCC[C@H]1C(=O)N[C@@H](CO)C(=O)N[C@@H](CO)C(=O)NCC(=O)N[C@@H](C)C(=O)N1CCC[C@H]1C(=O)N1CCC[C@H]1C(=O)N1CCC[C@H]1C(=O)N[C@@H](CO)C(N)=O)[C@@H](C)CC)C(=O)O [SEQ ID NO: 28, Y-Aib-Q-G-T-F-T-S-D-L-S-I-Q-K(γE-x53)-DKRAAQDFIEWLKAGGPSSGAPPPS-NH2] (H-Y[Aib]QGTFTSDLSIQK([γGlu-Palmitoyl])DKRAAQDFIEWLKAGGPSSGAPPPS-NH2) | 3.2 pM | –
4 | CCCCCCCCCCCCCCCC(=O)N[C@@H](CCC(=O)NCCCC[C@H](NC(=O)[C@H](CCC(N)=O)NC(=O)[C@@H](NC(=O)[C@H](CO)NC(=O)[C@H](CC(C)C)NC(=O)[C@H](CC(=O)O)NC(=O)[C@H](CO)NC(=O)[C@@H](NC(=O)[C@H](Cc1ccccc1)NC(=O)[C@@H](NC(=O)CNC(=O)[C@H](CCC(N)=O)NC(=O)C(C)(C)NC(=O)[C@@H](N)Cc1ccc(O)cc1)[C@@H](C)O)[C@@H](C)O)[C@@H](C)CC)C(=O)N[C@@H](CC(=O)O)C(=O)N[C@@H](CO)C(=O)N[C@@H](CCCNC(=N)N)C(=O)N[C@@H](C)C(=O)N[C@@H](C)C(=O)N[C@@H](CCC(N)=O)C(=O)N[C@@H](CCC(=O)O)C(=O)N[C@@H](Cc1ccccc1)C(=O)N[C@H](C(=O)N[C@@H](CCC(=O)O)C(=O)N[C@@H](Cc1c[nH]c2ccccc12)C(=O)N[C@@H](CC(C)C)C(=O)N[C@@H](CCCCN)C(=O)N[C@@H](C)C(=O)NCC(=O)NCC(=O)N1CCC[C@H]1C(=O)N[C@@H](CO)C(=O)N[C@@H](CO)C(=O)NCC(=O)N[C@@H](C)C(=O)N1CCC[C@H]1C(=O)N1CCC[C@H]1C(=O)N1CCC[C@H]1C(=O)N[C@@H](CO)C(N)=O)[C@@H](C)CC)C(=O)O [SEQ ID NO: 29, Y-Aib-Q-G-T-F-T-S-D-L-S-I-Q-K(γE-x53)-DSRAAQEFIEWLKAGGPSSGAPPPS-NH2] (H-Y[Aib]QGTFTSDLSIQK([γGlu-Palmitoyl])DSRAAQEFIEWLKAGGPSSGAPPPS-NH2) | 7 pM | –
5 | CCCCCCCCCCCCCCCC(=O)N[C@@H](CCC(=O)NCCCC[C@H](NC(=O)[C@H](CCC(N)=O)NC(=O)[C@@H](NC(=O)[C@H](CO)NC(=O)[C@H](CC(C)C)NC(=O)[C@H](CC(=O)O)NC(=O)[C@H](CO)NC(=O)[C@@H](NC(=O)[C@H](Cc1ccccc1)NC(=O)[C@@H](NC(=O)CNC(=O)[C@H](CCC(=O)O)NC(=O)C(C)(C)NC(=O)[C@@H](N)Cc1ccc(O)cc1)[C@@H](C)O)[C@@H](C)O)[C@@H](C)CC)C(=O)N[C@@H](CCC(=O)O)C(=O)N[C@@H](CO)C(=O)N[C@@H](CCCNC(=N)N)C(=O)N[C@@H](C)C(=O)N[C@@H](C)C(=O)N[C@@H](CCC(N)=O)C(=O)N[C@@H](CCC(=O)O)C(=O)N[C@@H](Cc1ccccc1)C(=O)N[C@H](C(=O)N[C@@H](CCC(=O)O)C(=O)N[C@@H](Cc1c[nH]c2ccccc12)C(=O)N[C@@H](CC(C)C)C(=O)N[C@@H](CCCCN)C(=O)N[C@@H](C)C(=O)NCC(=O)NCC(=O)N1CCC[C@H]1C(=O)N[C@@H](CO)C(=O)N[C@@H](CO)C(=O)NCC(=O)N[C@@H](C)C(=O)N1CCC[C@H]1C(=O)N1CCC[C@H]1C(=O)N1CCC[C@H]1C(=O)N[C@@H](CO)C(N)=O)[C@@H](C)CC)C(=O)O [SEQ ID NO: 39, Y-Aib-E-G-T-F-T-S-D-L-S-I-Q-K(γE-x53)-ESRAAQEFIEWLKAGGPSSGAPPPS-NH2] (H-Y[Aib]EGTFTSDLSIQK([γGlu-Palmitoyl])ESRAAQEFIEWLKAGGPSSGAPPPS-NH2) | 4.3 pM | –
6 | CC[C@H](C)[C@H](NC(=O)[C@H](Cc1ccccc1)NC(=O)[C@H](CC(=O)O)NC(=O)[C@H](CCC(N)=O)NC(=O)[C@H](C)NC(=O)[C@H](C)NC(=O)[C@H](CCCNC(=N)N)NC(=O)[C@H](CO)NC(=O)[C@H](CCC(=O)O)NC(=O)[C@H](CC(C)C)NC(=O)[C@H](CCC(N)=O)NC(=O)[C@@H](NC(=O)[C@H](CO)NC(=O)[C@H](CC(C)C)NC(=O)[C@H](CC(=O)O)NC(=O)[C@H](CO)NC(=O)[C@@H](NC(=O)[C@H](Cc1ccccc1)NC(=O)[C@@H](NC(=O)CNC(=O)[C@H](CCC(N)=O)NC(=O)C(C)(C)NC(=O)[C@@H](N)Cc1ccc(O)cc1)[C@@H](C)O)[C@@H](C)O)[C@@H](C)CC)C(=O)N[C@@H](CCC(=O)O)C(=O)N[C@@H](Cc1c[nH]c2ccccc12)C(=O)N[C@@H](CC(C)C)C(=O)N[C@@H](CCCCN)C(=O)N[C@@H](C)C(=O)NCC(=O)NCC(=O)N1CCC[C@H]1C(=O)N[C@@H](CO)C(=O)N[C@@H](CO)C(=O)NCC(=O)N[C@@H](C)C(=O)N1CCC[C@H]1C(=O)N1CCC[C@H]1C(=O)N1CCC[C@H]1C(=O)N[C@@H](CO)C(N)=O [SEQ ID NO: 40, Y-Aib-QGTFTSDLSIQLESRAAQDFIEWLKAGGPSSGAPPPS-NH2, reference compound] (H-Y[Aib]QGTFTSDLSIQLESRAAQDFIEWLKAGGPSSGAPPPS-NH2; N-terminus assumed) | – | 3.2 pM

Reference: patent publication US9670261B2 (Sanofi, priority 2012, dated 2017)
